From patent US10000783B2, “Steviol glucosyltransferases and genes encoding the same” (SUNTORY HOLDINGS LIMITED, priority 2012, dated 2018)

Tests used:
UGT91D-like3 = assay: Assay for enzyme activity of UGT91D-like3 on glycosyl acceptor substrates, LC-MS analysis; assay type: biochemical, stevia; conditions: for product formation on reaction of the glycosyl acceptor substrate with UGT91D-like3: 2 mM UDP-glucose, 0.1 mM glycosyl acceptor substrate, potassium phosphate buffer pH 7.0, 30° C., an hour, LC-MS
Experimental: (§1) Standard conditions for the enzyme reaction were as follows: A reaction solution (2 mM UDP-glucose, 0.1 mM glycosyl acceptor substrate, 100 mM potassium phosphate buffer (pH 7.0) and 25 μl of purified UGT91D-like3 enzyme solution) was prepared in distilled water to become 50 μl, and reacted at 30° C. for an hour. LC-MS analysis was performed for 5 μl of the enzyme reaction solution under the following conditions.
Column: Waters Sunfire C18 3.5 um […]
Moving phase: A: MilliQ Water (+0.05% formic acid), B: MeCN
Gradient: linear density gradient from 15% to 55% in B density (20 mins.)
Steviolmonoside (peak B) was prepared by reacting UGT85C2 and steviol (peak A), and the steviolmonoside was reacted with UGT91D-like3. […] This peak was identified as steviolbioside based on the retention time and mass fragmentation pattern. […] It was confirmed that UGT91D-like3 had the activity of forming steviolbioside (peak C) by glucosylation of steviolmonoside (peak B).

[1] = reported in the prior art (Non-Patent Document 2); cited from earlier work
[2] = Comparison in relative enzyme activity between recombinant UGT proteins, rubusoside as substrate; assay type: biochemical, stevia; conditions: for relative enzyme activity (amount of stevioside produced divided by amount of protein): glucosylation activity of UGT91D2e made 100%
Experimental: as §1
As given below, the Escherichia coli expression construct of UGT91D2e was prepared, and the enzyme activities of UGT91D2e and UGT91D-like3 were evaluated by the same manner as in EXAMPLES 3 and 4.
The enzyme activities were compared between the purified proteins of UGT91D-like3 and UGT91D2e expressed in Escherichia coli. Using rubusoside as substrate, the comparison was made under the same enzyme reaction conditions and analysis conditions as in EXAMPLE 4. A relative enzyme activity was calculated by dividing the amount of stevioside produced by the amount of the protein provided for the reaction.

Molecule: O=c1ccn([C@@H]2O[C@H](COP(=O)(O)OP(=O)(O)O[C@H]3OC[C@@H](O)[C@H](O)[C@H]3O)[C@@H](O)[C@H]2O)c(=O)[nH]1 [UDP-xylose]
- use as sugar donor by UGT91D-like3 (UGT91D-like3): did not use UDP-xylose as the sugar donor

Molecule: C=C1C[C@@]23CC[C@H]4[C@@](C)(CCC[C@@]4(C)C(=O)O[C@@H]4O[C@H](CO)[C@@H](O)[C@H](O)[C@H]4O)[C@@H]2CC[C@]1(O[C@@H]1O[C@H](CO)[C@@H](O)[C@H](O)[C@H]1O)C3 [rubusoside]
- product formation on reaction of the glycosyl acceptor substrate with UGT91D-like3 (UGT91D-like3): gave a new peak E

Molecule: C=C1C[C@@]23CC[C@H]4[C@@](C)(CCC[C@@]4(C)C(=O)O)[C@@H]2CC[C@]1(O)C3 [steviol]
- product formation on reaction of the glycosyl acceptor substrate with UGT91D-like3 (UGT91D-like3): no product was detected

Molecule: C=C1C[C@@]23CC[C@H]4[C@@](C)(CCC[C@@]4(C)C(=O)O)[C@@H]2CC[C@]1(O[C@@H]1O[C@H](CO)[C@@H](O)[C@H](O)[C@H]1O[C@@H]1O[C@H](CO)[C@@H](O)[C@H](O)[C@H]1O)C3 [steviolbioside]
- product formation on reaction of the glycosyl acceptor substrate with UGT91D-like3 (UGT91D-like3): any new product was not detected

Molecule: C=C1C[C@@]23CC[C@H]4[C@@](C)(CCC[C@@]4(C)C(=O)O)[C@@H]2CC[C@]1(O[C@@H]1O[C@H](CO)[C@@H](O)[C@H](O)[C@H]1O)C3 [steviolmonoside]
- product formation on reaction of the glycosyl acceptor substrate with UGT91D-like3 (UGT91D-like3): a new product (peak C) was detected

B1: UGT91D1: known stevia glucosyltransferase, GENBANK Accession No. AY345980 (protein, UniProt Q6VAA8 1-485, looked up)
UDP-glycosyltransferase 91D1: MYNVTYHQNSKAMATSDSIVDDRKQLHVATFPWLAFGHILPFLQLSKLIAEKGHKVSFLSTTRNIQRLSSHISPLINVVQLTLPRVQELPEDAEATTDVHPEDIQYLKKAVDGLQPEVTRFLEQHSPDWIIYDFTHYWLPSIAASLGISRAYFCVITPWTIAYLAPSSDAMINDSDGRTTVEDLTTPPKWFPFPTKVCWRKHDLARMEPYEAPGISDGYRMGMVFKGSDCLLFKCYHEFGTQWLPLLETLHQVPVVPVGLLPPEIPGDEKDETWVSIKKWLDGKQKGSVVYVALGSEALVSQTEVVELALGLELSGLPFVWAYRKPKGPAKSDSVELPDGFVERTRDRGLVWTSWAPQLRILSHESVCGFLTHCGSGSIVEGLMFGHPLIMLPIFCDQPLNARLLEDKQVGIEIPRNEEDGCLTKESVARSLRSVVVENEGEIYKANARALSKIYNDTKVEKEYVSQFVDYLEKNARAVAIDHES
- activity for steviolmonoside [1]: no activity

B2: UGT91D2e: prior art glucosyltransferase (Patent Document 3), SEQ ID NO: 32, short by the 12 amino acids (protein, listed as Stevia rebaudiana)
chain: MATSDSIVDDRKQLHVATFPWLAFGHILPYLQLSKLIAEKGHKVSFLSTTRNIQRLSSHISPLINVVQLTLPRVQELPEDAEATTDVHPEDIPYLKKASDGLQPEVTRFLEQHSPDWIIYDYTHYWLPSIAASLGISRAHFSVTTPWAIAYMGPSADAMINGSDGRTTVEDLTTPPKWFPFPTKVCWRKHDLARLVPYKAPGISDGYRMGLVLKGSDCLLSKCYHEFGTQWLPLLETLHQVPVVPVGLLPPEIPGDEKDETWVSIKKWLDGKQKGSVVYVALGSEVLVSQTEVVELALGLELSGLPFVWAYRKPKGPAKSDSVELPDGFVERTRDRGLVWTSWAPQLRILSHESVCGFLTHCGSGSIVEGLMFGHPLIMLPIFGDQPLNARLLEDKQVGIEIPRNEEDGCLTKESVARSLRSVVVEKEGEIYKANARELSKIYNDTKVEKEYVSQFVDYLEKNARAVAIDHES
- relative enzyme activity (amount of stevioside produced divided by amount of protein) [2]: 100%

B3: UGT91D-like3: novel stevia glucosyltransferase, amino acid sequence SEQ ID NO: 2 (protein, listed as Stevia rebaudiana)
chain: MYNVTYHQNSKAMATSDSIVDDRKQLHVATFPWLAFGHILPYLQLSKLIAEKGHKVSFLSTTRNIQRLSSHISPLINVVQLTLPRVQELPEDAEATTDVHPEDIPYLKKASDGLQPEVTRFLEQHSPDWIIYDYTHYWLPSIAASLGISRAHFSVTTPWAIAYMGPSADAMINGSDGRTTVEDLTTPPKWFPFPTKVCWRKHDLARLVPYKAPGISDGYRMGLVLKGSDCLLSKCYHEFGTQWLPLLETLHQVPVVPVGLLPPEIPGDEKDETWVSIKKWLDGKQKGSVVYVALGSEVLVSQTEVVELALGLELSGLPFVWAYRKPKGPAKSDSVELPDGFVERTRDRGLVWTSWAPQLRILSHESVCGFLTHCGSGSIVEGLMFGHPLIMLPIFGDQPLNARLLEDKQVGIEIPRNEEDGCLTKESVARSLRSVVVEKEGEIYKANARELSKIYNDTKVEKEYVSQFVDYLEKNARAVAIDHES
- relative enzyme activity per protein amount higher than UGT91D2e [2]: 67%
- relative enzyme activity (amount of stevioside produced divided by amount of protein) [2]: 167%
